This is an account of results in ChEMBL document CHEMBL3751815, “Sulfonamides incorporating heteropolycyclic scaffolds show potent inhibitory action against carbonic anhydrase isoforms I, II, IX and XII” (Bioorg Med Chem, 2016).

This assay addresses Carbonic anhydrase 9 (Homo sapiens, UniProt Q16790). Nature of the assay: Inhibition of recombinant human carbonic anhydrase 9 preincubated for 15 mins by stopped-flow CO2 hydration assay.

Structures are written as SMILES.

As a reminder, the Ki is a dissociation constant, usually derived from enzyme kinetics or from competition with a known ligand. Turning to `COc1ccc2c(c1)SCc1cn(-c3ccc(S(N)(=O)=O)cc3)nc1-2`, the Ki amounted to 7.4 nM. Regarding `NS(=O)(=O)c1ccc(Nc2ncc3c(n2)-c2ccc(Cl)cc2SC3)cc1`, the Ki stood at 8.7 nM. In the case of `NS(=O)(=O)c1ccc(-n2cc3c(n2)-c2ccc(Cl)cc2SC3)cc1` it was 6.1 nM.

In the case of `Cc1ccc2c(c1)NCc1cn(-c3ccc(S(N)(=O)=O)cc3)nc1-2`, the Ki was determined as 7.7 nM. Regarding `CN(CC(=O)O)c1ccc2c(c1)-c1cccnc1SC2`, the Ki is 67.8 nM. In the case of `COc1ccc2c(c1)SCc1cnc(Nc3ccc(S(N)(=O)=O)cc3)nc1-2` it was 22.5 nM; in that of `COc1ccc2c(c1)SCc1ccc(N(C)CC(=O)O)cc1-2`, 40.8 nM; in that of `Cc1ccc2c(n1)SCc1ccc(N(C)CC(=O)O)cc1-2`, 92.7 nM. As to `NS(=O)(=O)c1ccc(Nc2ncc3c(n2)-c2ccccc2SC3)cc1`, the Ki worked out at 7 nM.

`COc1ccc2c(c1)SCc1ccc(NCC(=O)O)cc1-2`: the Ki is 54.1 nM. `NS(=O)(=O)c1ccc(-n2cc3c(n2)-c2ccccc2NC3)cc1`: the Ki came out at 6.3 nM. Consider `NS(=O)(=O)c1ccc(Nc2ncc3c(n2)-c2cccnc2SC3)cc1`, for which the Ki amounted to 27.6 nM.
